“Also recorded” adds a separate entry of the source.
Legend:
Sirt6 [1] = target: T1, Sirt6 (Homo sapiens, UniProt Q8N6T7); conditions: literature value, cited from earlier work
H1299 cells [2] = experiment: Acetylated H3K9 / total H3 in H1299 cells, Western blot; assay type: cell-based; conditions: 30 μM, 24 hours
Sirt6 [3] = target: T1, Sirt6; experiment: Nucleosome test: Sirt6-dependent H3K9 deacetylation of nucleosomes from HEK293T cells, Western blot; assay type: biochemical; conditions: 100 μM, 30° C., 60 minutes
Procedure: (§1) . Nucleosomes extracted from HEK293T cells were incubated with 100 μM of selected compounds or Vehicle at 30° C. for 60 minutes. Acetylated H3K9 and total H3 were detected by Western blot. The level of acetylated H3K9 was quantified by Image Lab software. FIGS. 5B and 5C show the cell viability which was assessed by MTT assay. R28 cells were treated with 30 μM or 100 μM compounds for 24 hours. Data were presented as mean±SEM. The experiment was repeated at least three times. ***p<0.001; ****p<0.0001.
Next, effects of selected compounds were explored for Sirt6-dependent deacetylation of complete nucleosomes extracted from human embryonic kidney (HEK) 293T cells, as nucleosomes represent more physiologically relevant substrates. […]. Briefly, HEK 293T cells in 100 mm dish were lysed with lysis buffer supplemented with PIC and PMSF for 30 min. After centrifugation for 10 min at 5000 rpm at 4° C., supernatant was removed and nuclei pellet was resuspended with digestion buffer supplemented with PIC and PMSF for 5 min at 37° C. Working enzymatic sharing cocktail was added to digest the chromatin, and EDTA was added after incubation to stop the digestion. Digested nucleosome was obtained in the supernatant after centrifugation for 10 min at 15000 rpm at 4° C. and the concentration was quantified by measuring the absorbance at […]. 20 μg nucleosome was incubated in solution (1× buffer, 0.5 μL recombinant Sirt6 and […] NAD, from SIRT6 ACTIVITY ASSAY KIT) for 60 min. To test the effects of the compounds on Sirt6 activity, corresponding compound or DMSO control was added before incubation. The reaction mixture was analyzed by Western blot.
Proteins were extracted from cells with PIERCE RIPA BUFFER (89901, ThermoFisher Scientific), and protein concentration was determined using PIERCE BCA PROTEIN ASSAY KIT (23225, ThermoFisher Scientific). Equal amounts of protein were loaded and separated by SDS-PAGE gel. Next, separated proteins were transferred onto Nitrocellulose Blotting Membranes (A29457237, GE Healthcare Life science), and then the membranes were blocked by 5% non-fat dry milk. After incubation with corresponding primary antibodies against H3K9ac, H3 and Sirt6 at a 1:1000 dilution, or α-tubulin at a 1:5000 dilution, goat anti-mouse or goat anti-rabbit secondary antibodies at a 1:5000 dilution were applied. Finally, membranes were incubated with enhanced chemiluminescent and protein bands were detected by CHEMIDOC imaging system (Bio-Rad). Image-Lab software was used to analyze the intensities of the protein bands.

H1299 cells [4] = experiment: Colony formation assay in H1299 cells; assay type: cell-based; conditions: 30 μM, one week
PLC/PRF/5 cells [5] = experiment: Acetylated H3K9 / total H3 in PLC/PRF/5 cells, Western blot; assay type: cell-based; conditions: 30 μM, 24 hours
SARS-CoV-2 = experiment: microbe, parasite or virus in culture; assay type: cell-based
BV2 cells = experiment: LPS-induced inflammatory gene mRNA expression in BV2 cells, q-PCR; assay type: cell-based, murine; conditions: for LPS-induced expression of IL-1β, IL-6, MCP-1, and TNFα / ICAM-1 induction / LPS-induced IL-1β, IL-6, and MCP-1 response / LPS-induced iNOS and CXCL10 expression / VCAM-1 induction: BV2 cells, 100 ng/mL LPS 6 hours, mRNA; for LPS-induced expression of IL-1β, IL-6, MCP-1, and TNFα: 30 μM pretreatment 30 minutes; for ICAM-1 induction / LPS-induced IL-1β, IL-6, and MCP-1 response / LPS-induced iNOS and CXCL10 expression / VCAM-1 induction: 30 μM; for LPS-induced proinflammatory cytokine/chemokine production: summary statement
PLC/PRF/5 cells [6] = experiment: Colony formation assay in PLC/PRF/5 cells; assay type: cell-based; conditions: 30 μM, one week
A549-hACE2 cells = experiment: Cell viability assay in A549-hACE2 cells; conditions: 50 μM, 48 h
[7] = test system: retinal precursor cells (R28); experiment: MTT cell viability assay in R28 cells; assay type: cell-based; conditions: 24 hours
Procedure: as §1, with “FIGS. 5A-5C: FIGS. 5A-5C display the deacetylation effect and cytotoxicity of selected compounds. […] Nucleosomes” for “. Nucleosomes”
R28 cells were seeded in 96 well plates at a density of 1×10^4/well overnight, then treated with compounds for 24 h. MTT (MilliporeSigma) was added to cells (20 μL/well) and incubated for 3.5 h. After medium was removed, 100 μL dimethyl sulfoxide (DMSO) was added into each well. Absorbance was measured at 540 nm using a microplate reader.

Sirt6 [8] = target: T1, Sirt6; experiment: Sirt6-dependent peptide deacetylation, FLUOR DE LYS / Sirt6 fluorometric activity kit; assay type: biochemical; conditions: mean ± SD, at least two independent experiments; for Activation Fold 30 μM: compound at 30 μM; for Activation Fold 100 μM: compound at 100 μM
Procedure: (§2) Sirt6/Sirt1/Sirt2/Sirt3 activity was tested by Activity Assay Kits (Abcam) according to the manufacturer's instruction with minor modification. […] All experiments were conducted at room temperature.

Sirt1 = target: T2, Sirt1 (Homo sapiens, UniProt Q96EB6); experiment: Sirt1 deacetylation activity assay kit; conditions: time course, FIG. 3
T2 sequence (Q96EB6 1-747): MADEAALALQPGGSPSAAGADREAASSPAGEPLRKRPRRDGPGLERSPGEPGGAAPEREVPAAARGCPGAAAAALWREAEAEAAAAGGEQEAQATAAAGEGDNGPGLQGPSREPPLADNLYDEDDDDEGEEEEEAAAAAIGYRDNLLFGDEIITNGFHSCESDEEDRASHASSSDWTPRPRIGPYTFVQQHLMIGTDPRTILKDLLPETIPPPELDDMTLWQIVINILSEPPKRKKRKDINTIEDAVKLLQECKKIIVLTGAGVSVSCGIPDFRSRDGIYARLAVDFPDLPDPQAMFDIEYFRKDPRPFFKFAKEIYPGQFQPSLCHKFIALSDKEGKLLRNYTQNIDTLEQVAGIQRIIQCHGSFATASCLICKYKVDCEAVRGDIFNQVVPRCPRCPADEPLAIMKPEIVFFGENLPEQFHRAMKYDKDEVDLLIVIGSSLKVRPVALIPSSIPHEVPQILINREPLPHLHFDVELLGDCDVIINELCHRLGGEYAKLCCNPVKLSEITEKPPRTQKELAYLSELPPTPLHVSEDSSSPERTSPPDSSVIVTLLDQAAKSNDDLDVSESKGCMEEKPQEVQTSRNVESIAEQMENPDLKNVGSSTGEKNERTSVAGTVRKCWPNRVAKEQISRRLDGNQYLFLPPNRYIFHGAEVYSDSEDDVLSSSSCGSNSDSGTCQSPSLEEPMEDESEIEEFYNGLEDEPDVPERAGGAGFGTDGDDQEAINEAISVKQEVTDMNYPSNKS
Procedure: as §2

T1 sequence (Q8N6T7 whole entry): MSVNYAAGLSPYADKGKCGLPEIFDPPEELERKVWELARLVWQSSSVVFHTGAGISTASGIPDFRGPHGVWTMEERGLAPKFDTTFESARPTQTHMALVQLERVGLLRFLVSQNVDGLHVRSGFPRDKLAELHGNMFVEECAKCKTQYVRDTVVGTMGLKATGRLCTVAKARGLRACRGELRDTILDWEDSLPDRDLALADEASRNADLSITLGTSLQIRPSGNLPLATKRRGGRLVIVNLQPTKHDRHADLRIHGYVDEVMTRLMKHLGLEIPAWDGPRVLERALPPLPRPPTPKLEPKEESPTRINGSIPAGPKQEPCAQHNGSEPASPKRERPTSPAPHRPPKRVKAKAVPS

Row | Compound | acetylation of H3K9 in the nucleosome test (Sirt6 [3]) | potency in inhibiting SARS-CoV-2 infection (in words) (SARS-CoV-2) | LPS-induced expression of IL-1β, IL-6, MCP-1, and TNFα (BV2 cells) | ICAM-1 induction (BV2 cells) | LPS-induced proinflammatory cytokine/chemokine production (BV2 cells) | cytotoxicity at the highest tested concentration (A549-hACE2 cells) | toxicity on retinal precursor cells (R28) ([7]; 30 μM) | Activation Fold 30 μM (Sirt6 [8]) [fold] | Activation Fold 100 μM (Sirt6 [8]) [fold] | LPS-induced IL-1β, IL-6, and MCP-1 response (BV2 cells) | LPS-induced iNOS and CXCL10 expression (BV2 cells) | further results
1 | O=C(O)c1ccc2c(c1)C(=O)N(c1ccc(N(C(=O)c3c(Cl)cc(Cl)cc3Cl)C(=O)c3c(Cl)cc(Cl)cc3Cl)c(Cl)c1)C2=O [CL5D] | – | – | – | – | – | – | – | – | – | – | – | Sirt6 activation at 3 μM (Sirt6 [1]; concentration of 3 μM): 4 fold
2 | OCCN1CCN(c2ncccc2C2Nc3ccccc3-n3cccc32)CC1 (centres unmarked) [Compound 35, 2-(4-(3-(4,5-Dihydropyrrolo[1,2-a]quinoxalin-4-yl)pyridin-2-yl)piperazin-1-yl)ethan-1-ol] | significantly decreased the acetylation of H3K9 | micromolar potency | strongly inhibited | slight inhibition | strongly repressed | none of these compounds exhibited significant cytotoxicity | no obvious toxicity | 2.92 ± 0.06 | 5.72 ± 0.69 | – | – | Sirt6 deacetylation of H3K9 (acetylated H3K9 to total H3) (H1299 cells [2]): no obvious influence; colony formation (H1299 cells [4]): only a slight inhibitory effect; Sirt6 deacetylation of H3K9 (acetylated H3K9 to total H3) (PLC/PRF/5 cells [5]): no obvious influence; colony formation (PLC/PRF/5 cells [6]): only a slight inhibitory effect; toxicity on retinal precursor cells (R28) ([7]; 100 μM): no obvious toxicity; effect on Sirt1 deacetylation (Sirt1): no significant effects
3 | COCCN1CCN(c2ncccc2C2Nc3ccccc3-n3cccc32)CC1 (centres unmarked) [Compound 36, 4-(2-(4-(2-Methoxyethyl)piperazin-1-yl)pyridin-3-yl)-4,5-dihydropyrrolo[1,2-a]quinoxaline] | significantly decreased the acetylation of H3K9 | micromolar potency | strongly inhibited | – | strongly repressed | none of these compounds exhibited significant cytotoxicity | no obvious toxicity | 3.17 ± 0.21 | 6.06 ± 0.13 | – | – | Sirt6 deacetylation of H3K9 (acetylated H3K9 to total H3) (H1299 cells [2]): significantly activated Sirt6 to deacetylate H3K9; decrease of acetylated H3K9 when Sirt6 was knockdown by siRNA (H1299 cells [2]; Sirt6 siRNA): abolished; colony formation (H1299 cells [4]): significantly inhibited; also recorded: about half; Sirt6 deacetylation of H3K9 (acetylated H3K9 to total H3) (PLC/PRF/5 cells [5]): significantly activated Sirt6 to deacetylate H3K9; decrease of acetylated H3K9 when Sirt6 was knockdown by siRNA (PLC/PRF/5 cells [5]; Sirt6 siRNA): abolished; colony formation (PLC/PRF/5 cells [6]): significantly inhibited; also recorded: about half; toxicity on retinal precursor cells (R28) ([7]; 100 μM): no obvious toxicity; effect on Sirt1 deacetylation (Sirt1): no significant effects
4 | OC1CN(CCN2CCN(c3ncccc3C3Nc4ccccc4-n4cccc43)CC2)C1 (centres unmarked) [Compound 46, 1-(2-(4-(3-(4,5-Dihydropyrrolo[1,2-a]quinoxalin-4-yl)pyridin-2-yl)piperazin-1-yl)ethyl)azetidin-3-ol] | significantly decreased the acetylation of H3K9 | micromolar potency | strongly inhibited | – | strongly repressed | none of these compounds exhibited significant cytotoxicity | no obvious toxicity | 3.30 ± 0.11 | 6.30 ± 0.25 | almost reversed | significantly repressed | VCAM-1 induction (BV2 cells): obviously inhibit
5 | c1ccc2c(c1)NC(c1cccnc1N1CCN(CCN3CCCC3)CC1)c1cccn1-2 (centres unmarked) [Compound 47, 4-(2-(4-(2-(Pyrrolidin-1-yl)ethyl)piperazin-1-yl)pyridin-3-yl)-4,5-dihydropyrrolo[1,2-a]quinoxaline] | no effect | – | strongly inhibited | slight inhibition | strongly repressed | – | no obvious toxicity | 4.80 ± 0.19 | 5.38 ± 0.29 | almost reversed | significantly repressed | VCAM-1 induction (BV2 cells): obviously inhibit
6 | c1ccc2c(c1)NC(c1cccnc1N1CCN(CCn3ccnc3)CC1)c1cccn1-2 (centres unmarked) [Compound 50, 4-(2-(4-(2-(1H-Imidazol-1-yl)ethyl)piperazin-1-yl)pyridin-3-yl)-4,5-dihydropyrrolo[1,2-a]quinoxaline] | significantly decreased the acetylation of H3K9 | – | strongly inhibited | slight inhibition | strongly repressed | – | no obvious toxicity | 3.34 ± 0.19 | 6.29 ± 0.02 | almost reversed | significantly repressed | –
7 | CN(C)CCN1CCN(c2ncccc2C2Oc3ccccc3-n3c2ccc3C(F)(F)F)CC1 (centres unmarked) [Compound 76, N,N-Dimethyl-2-(4-(3-(1-(trifluoromethyl)-4H-benzo[b]pyrrolo[1,2-d][1,4]oxazin-4-yl)pyridin-2-yl)piperazin-1-yl)ethan-1-amine] | – | – | – | – | – | – | – | 2.69 ± 0.02 | 4.20 ± 0.06 | – | – | –
8 | CCCCCCCC/C=C\CCCCCCCC(=O)NCCO [Oleoylethanolamide] | – | – | – | – | – | – | – | – | – | – | – | maximum activation (Emax) of Sirt6 deacetylation (Sirt6 [1]): 2.1 fold

Reference: patent US20240327411A1, “SIRT6 ACTIVATORS” (The Board of Regents of The University of Texas System, priority 2022, published 2024)
